Oligonucleotides are written 5' to 3', each unit as a sugar letter and its base; * is a phosphorothioate linkage, no mark a phosphodiester; rarer units and linkages stand in square brackets, end groups in braces. Plain capitals give the bases only. {Chol} = cholesterol; m = 2'-O-methyl
Columns and labels:
CL1-5-F4 cells [1] = experiment: Migration assay (culture inserts); assay type: cell-based, human; settings: CL1-5-F4 cells transfected 48 hours, vs scramble (NC)
Procedure: (§1) CL1-5-F4 and Hop-62 cells were transfected with scramble (NC) of miR-135b-specific antagomir (Antago-135b) for 48 hours and the subjected to migration assays (FIG. 2d) and invasion assays (FIG. 2e) as described above. *P<0.05;**P<0.005 by Student's t-test.
(§2) For the migration assay, culture inserts (Ibidi, Munich, Germany) were inserted into 60-mm dishes. Next, the cell suspensions were seeded in each culture insert well at a concentration of 2.5×10^4 (CL1-0) or 3×10^4 (CL1-5-F4 and UACC-257) cells/mL. The culture inserts were removed to leave a gap of approximately 500 μm.

Hop-62 cells = experiment: Migration assay (culture inserts); assay type: cell-based; settings: Hop-62 cells transfected 48 hours, vs scramble (NC)
Procedure: as §1, §2

CL1-5-F4 cells [2] = experiment: Soft agar anchorage-independent growth assay; assay type: cell-based, human; settings: CL1-5-F4 cells transfected 48 hours, vs NC
Procedure: CL1-5-F4 and Hop-62 cells were transfected with the negative control (NC) or the Anatago-135b for 48 hours and subjected to soft agar assays. Error bars indicate mean±s.d.,*P<0.05 by Student's t-test.

CL1-5 cells = experiment: Orthotopic lung cancer model; assay type: in vivo, nude mice
Procedure: CL1-5 cells were implanted orthotopically into the left lungs of 6-weeks-old nude mice (n=9). A series of scramble antagomir (NC) or miR-135b antagomir (Antago-135b) intravenous injections were performed every 2 days after tumor cell implantation. Lungs were harvested 25 days after the cells were implanted. […] Arrows indicate the visible nodules. […] Data are expressed as mean±s.e.m. *P<0.05 by Student's t-test.
Mice bearing CL1-5 cells were subjected to scramble antagomir (NC) or miR-135b antagomir (Antago-135b) treatment. Animal survival was determine using Kaplan-Meier survival analysis and the log-rank test for data obtained 25 days after the cancer cells were orthotopically injected (n=9).
Next, the effects of miR-135b inhibition on tumor growth and metastasis in an orthotopic lung cancer model were checked. Seven intravenous injections of miR-135b antagomir were given 4 days after CL1-5 implantation.

CL1-5-F4 cells [3] = experiment: Late-stage metastasis model, intravenous injection of tumor cells; assay type: in vivo, mice; settings: 3 months after i.v. cell injection, tail vein treatments, P=0.018
Excerpt: CL1-5 cells with scramble antagomir (NC) or miR-135 antagomir (Antago-135b) were intravenously injected to assess the effect of antagomir on late-stage metastasis (n=9). Representative average of visible metastatic lung nodules and H&E staining (right). Data are expressed as the mean±s.e.m. *P<0.05 by Student's t-test.
Animals were housed in a specific-pathgen-free environment in the animal facility of the Institute of Biomedical Sciences, Academia Sinica. All experimental procedures were in compliance with the Academia Sinica IACUC and Council of Agriculture Guidebook for the Care and Use of Laboratory Animals. For intravenous injections of the tumor cells, 1×10^6 cells were suspended in 0.1 mL of phosphate-buffered saline (PBS) and injected into lateral tail vein of SCID mice (10 mice per group). […] For the subcutaneous tumor assay, 1×10^6 CL1-0 cells or 2×10^5 H441 cells were subcutaneously injected in 0.1 mL of PBS into male nude mice (n=8 per group) and allowed to grow for 35 days to reach a volume of 50-200 mm^3 Control antagomir (Scramble) or anti-miR-135b antagomir (antago-135) was intravenously injected at a concentration of 10 μM in 0.1 mL of PBS 4 days after the cells were implanted. […]
The impact of the antagomir during the late stages in metastasis was determined, such as extravasation and colonization. […]

LZTS1 3′-UTR = experiment: Luciferase reporter assay, LZTS1 3'-UTR; assay type: cell-based; settings: CL1-0 cells co-transfected with miR-135b, vs Scramble
Procedure: CL1-0 cells were co-transfected with miR-135b, wild-type LZTS1 3′-UTR along with Scramble or miR-135-specific antagomir (Antago-135b). Luciferase activity was measured and is presented as described in FIG. 5a. Mean±s.d. is shown, *P<0.05; **P<0.005 by Student's t-test.
(§3) One day before transfection, CL1-0 cells were seeded at a concentration of 2.5×10^4 per well. Next, the pClneo vector or miR-135b plasmid was co-transfected with the pGL3-target gene-3′UTR. The Renilla lunciferase plasmid (phRL-TK, Promega, Madison, Wis.) was co-transfected as transfection control. Cells were lysed 36 hours after transfection, and luciferase activity was measured using a Dual-Luciferase system (Promega, Madison, Wis.) according to the manufacture's protocol.

[4] = test system: pGL3-3′-UTRs of Hippo pathway genes; experiment: Luciferase reporter assay, Hippo pathway 3'-UTRs; assay type: cell-based; settings: CL1-0 cells co-transfected with miR-135b and pGL3-3′-UTRs, 60 hours
Procedure: CL1-0 cells co-transfected with miR-135b and pGL3-3′-UTRs with scramble (NC) or Antago-135b for 60 hours. Luciferase activity was assayed and is presented a described in FIG. 6a. Mean±s.d. is shown, *P<0.05; **P<0.005 by Student's t-test.
as §3

CL1-5-F4 cells [5] = experiment: Western blot of Hippo pathway proteins; assay type: cell-based, human; settings: 72 hours
Procedure: (§4) Western bolt analysis of the Hippo pathway proteins in CL1-5-F4 and CL141 cells incubated with Scramble (NC) of Antago-135b for 72 hours. Quantitative RT-PCR was used to assay miR-135b knockdown activity.

CL141 cells = experiment: Western blot of Hippo pathway proteins; assay type: cell-based; settings: 72 hours
Procedure: as §4

[6] = seven i.v. injections, 4 days after CL1-5 implantation, vs control lungs

## 5′mU(*)mC(*)mAmCmAmUmAmG-mGmAmAmUmGmAmAmAmAmGmCmC(*)mA(*)mU(*)mA(*)(3′-Ch1)3′ (SEQ ID NO:8) (mU*mC*mAmCmAmUmAmGmGmAmAmUmGmAmAmAmAmGmCmC*mA*mU*mA*{Chol}) [miR-135b antagomir]
CL1-5-F4 cells [1]
  migratory ability: inhibited these changes
Hop-62 cells
  migratory ability: inhibited these changes
CL1-5-F4 cells [2]
  number of cell colonies (soft agar): decreased
CL1-5 cells; [6]
  orthotopic tumor growth: inhibited orthotopic tumor growth
  volume of lung metastases: decrease the volume of lung metastases
CL1-5 cells; systemic delivery in orthotopic tumor-bearing mice
  survival rates: increased survival rates
CL1-5-F4 cells [3]
  metastatic lung nodules vs control group: eight-fold fewer
LZTS1 3′-UTR
  suppressive effects of miR-135b on LZTS1 3′-UTR-carrying luciferase: significantly reduced
[4]
  miR-135b-induced reporter activity: decrease
CL1-5-F4 cells [5]
  LATS2, β-TrCP and NDR2 expressions: induced
  TAZ protein expression: reduced
CL141 cells
  LATS2, β-TrCP and NDR2 expressions: induced
  TAZ protein expression: reduced

Reference: patent US20150141485A1, “PROGNOSIS AND TREATMENT OF LUNG CANCER USING miRNA-135b” (NATIONAL CHENG KUNG UNIVERSITY, priority 2013, published 2015)
